≈ marks a conversion by molar mass, not a printed value. Where “and” joins values, the source holds several entries; their conditions need not be identical. Identical values can stand only once. Like-named read-outs stand apart in the source and are kept apart here.
Legend:
M. tuberculosis H37Rv = test: MIC against H37Rv; format: cell-based; settings: Mycobacterium tuberculosis
Text: Table 1 Z’ and pXC50 values for dose response validation of GuaB2 targeting compounds.

Mtb GuaB2 = molecular target: T1, Mtb GuaB2 (Mycobacterium tuberculosis, UniProt P9WKI7); test: Biochemical assay of GuaB2 inhibition; settings: duplicate, mean
T1 construct: made in house
T1 sequence (P9WKI7 whole entry, looked up): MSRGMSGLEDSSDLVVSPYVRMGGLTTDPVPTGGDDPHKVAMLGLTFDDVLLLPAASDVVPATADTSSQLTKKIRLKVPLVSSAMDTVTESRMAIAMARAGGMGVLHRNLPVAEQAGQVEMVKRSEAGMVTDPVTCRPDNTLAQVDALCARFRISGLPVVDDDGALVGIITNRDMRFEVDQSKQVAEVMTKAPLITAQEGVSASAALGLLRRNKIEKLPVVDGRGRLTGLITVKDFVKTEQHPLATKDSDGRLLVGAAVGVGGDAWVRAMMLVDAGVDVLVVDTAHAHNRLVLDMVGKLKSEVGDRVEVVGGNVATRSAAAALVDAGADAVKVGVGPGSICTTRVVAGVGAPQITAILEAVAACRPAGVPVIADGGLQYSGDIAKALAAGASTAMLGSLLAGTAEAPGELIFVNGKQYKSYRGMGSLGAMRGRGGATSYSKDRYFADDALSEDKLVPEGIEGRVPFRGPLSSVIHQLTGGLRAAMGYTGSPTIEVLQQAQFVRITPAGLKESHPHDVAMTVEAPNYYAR
Description: The Mtb ortholog of the enzyme was recombinantly expressed, purified and assayed as previously described. Inhibition was determined at 0.1 mM, using 12 μg GuaB2 with the addition of 0.5% CHAPS. Each assay was normalised for DMSO concentration. Data was recorded in duplicate and analysed using Graphpad Prism 6.0.

[1] = tested on: M. bovis BCG pMV261-guaB2; test: microbe, parasite or virus in culture; format: cell-based, Mycobacterium bovis BCG; settings: for IC50: Mycobacterium tuberculosis variant bovis BCG, BCG, 168 h, 7 days, read-out: pXC50 Mean for GuaB2 (converted)
M. bovis BCG pMV261 = test: microbe, parasite or virus in culture; format: cell-based; settings: Mycobacterium tuberculosis variant bovis BCG, 168 h, read-out: pXC50 for Empty Vector (converted)
[2] = 0.1 mM compound, 12 μg GuaB2, 0.5% CHAPS, read-out: % Biochemical Inhibition of Mtb GuaB2
[3] = 0.1 mM compound, 12 μg GuaB2, 0.5% CHAPS
[4] = read-out: % Biochemical Inhibition of Mtb GuaB2, 0.1 mM compound, 12 μg GuaB2, 0.5% CHAPS

SMILES	MIC (M. tuberculosis H37Rv) [µM]	inhibition at 100 µM (Mtb GuaB2; [2]) [%]	Shift pIC50 [1]	IC50 [1] [µM]	IC50 (M. bovis BCG pMV261) [µM]	% Biochemical Inhibition of Mtb GuaB2 (Mtb GuaB2; [3])	inhibition at 100 µM (Mtb GuaB2; [4]) [%]
COc1ccc(Cl)c2sc(N(CCN(C)C)C(C)=O)nc12 [JAGC_4, N-(7-chloro-4-methoxybenzo[d]thiazol-2-yl)-N-(2-(dimethylamino)ethyl)acetamide]	> 80	20.7	0.64	≥ 100	22.9	–	–
CC(=O)Nc1ccc(-c2ccc3ncc(N4CCN(C)CC4)nc3c2)cn1 [JAGC_1, N-(5-(3-(4-methylpiperazin-1-yl)quinoxalin-6-yl)pyridin-2-yl)acetamide]	> 80	23.1	1.05	≥ 100	8.91	–	–
Cc1ccc([N+](=O)[O-])cc1NC(=O)Nc1cccc(Cl)c1 [DPU-2, reference compound]	–	44.6	–	–	–	–	–
Clc1cc2ccccc2c(N2CCNCC2)n1 [JAGC_6, 3-chloro-1-(piperazin-1-yl)isoquinoline]	> 80	–	1.07	44.7	3.8	15.44%	12.3
CCOc1ccc(C(=O)Nc2cc(Cl)c3c(c2)CNCC3)cc1C(C)=O [JAGC_2, 3-acetyl-N-(5-chloro-1,2,3,4-tetrahydroisoquinolin-7-yl)-4-ethoxybenzamide]	> 80	–	0.84	57.5	8.32	26.53%	26.5
CC1CCC(NC(=O)Nc2ccc3snnc3c2)CC1 (stereo not drawn) [JAGC_7, 1-(benzo[d][1,2,3]thiadiazol-5-yl)-3-(4-methylcyclohexyl)urea]	50 (≈ 14.5 µg/mL)	12.2	0.37	9.77	4.17	–	–
COC(=O)c1c(NC(=O)N2CCNCC2)sc2c1CC(C)(C)OC2 [JAGC_3, methyl 5,5-dimethyl-2-(piperazine-1-carboxamido)-4,7-dihydro-5H-thieno[2,3-c]pyran-3-carboxylate]	> 80	21.8	0.99	≥ 100	10.2	–	–
CC(C)CCN(c1ccc(C#N)c(Cl)c1)[C@H]1CCNC1 [JAGC_5, (S)-2-chloro-4-(isopentyl(pyrrolidin-3-yl)amino)benzonitrile]	> 100	20.6	0.94	38	4.37	–	–
NNC(=O)c1ccncc1 [INH, isoniazid, reference compound]	–	–	–	–	–	−9% and −8.88%	–

From article PMC5159837, “Novel inhibitors of Mycobacterium tuberculosis GuaB2 identified by a target based high-throughput phenotypic screen” (Scientific Reports, 2016)
